{"source": "patent US5885994A", "about": "“Tetrahydroquinoxaline dopamine D4 receptor antagonists” (Warner-Lambert Company, priority 1998, dated 1999)", "system": "locomotor activity", "test": "Behavioral activity (locomotor activity) in the Omnitech Digiscan Animal Activity Monitors", "format": "in vivo, mice and rats", "procedure": "PROTOCOL FOR THE BEHAVIORAL ACTIVITY ASSESSMENT OF MICE AND RATS IN THE OMNITECH DIGISCAN ANIMAL ACTIVITY MONITORS\nThe purpose of this test is to evaluate compounds for antipsychotic-like central nervous system (CNS) effects and a variety of other behavioral effects generally associated with CNS activity. […] Generally, however, drug effects on behavior are assessed using total distance traveled (in cm) as the most accurate measure of locomotor activity.\nMale CD-1 albino mice weighing 20 to 40 g (Charles River Laboratories) or male Sprague-Dawley rats weighing 150 to 300 g (Harlan Laboratories) are used for these studies. […] Drug doses are expressed as the active moiety (taking into account the salt vs free base molecular weight of the drug). […]\nOnce the animal is placed in the activity chamber, the chambers are individually activated to begin collecting data. Activity levels are generally monitored with the overhead lights turned off, as the dark-stimulation tends to produce less variation in the data. […]\nData can be expressed as either actual counts, time (in sec), centimeters traveled, or percent inhibition of activity relative to vehicle-treated control animals tested concurrently. Significant changes in activity (i.e., cm traveled), relative to controls, are determined by t-test or analysis of variance and Newman-Keul's multiple-range test. […]"}
{"smiles": "Cc1ccc(N2CCN(Cc3ccc4c(c3)NCCN4)CC2)cc1C", "note": "[Example 2, 6-[4-(3,4-Dimethylphenyl)piperazin-1-ylmethyl]-1,2,3,4-tetrahydroquinoxaline]", "values": [{"measurement": "Omnitech Digiscan Activity Monitor test (result in words)", "setting": "1, 3, 10, 30 mg/kg IP", "value": "dose-dependent decrease"}, {"measurement": "ED50", "setting": "Mus musculus, ip", "value": 16.5, "unit": "mg/kg"}]}
